Results as given in US20250270200A1, “CTPS1 INHIBITORS AND USES THEREOF” (Nimbus Clotho, Inc., priority 2022, published 2025).
Structures can show the parent of a compound that is named as a salt.

Target: T1, human CTPS1 (Homo sapiens, UniProt P17812)
T1 sequence (P17812 1-591): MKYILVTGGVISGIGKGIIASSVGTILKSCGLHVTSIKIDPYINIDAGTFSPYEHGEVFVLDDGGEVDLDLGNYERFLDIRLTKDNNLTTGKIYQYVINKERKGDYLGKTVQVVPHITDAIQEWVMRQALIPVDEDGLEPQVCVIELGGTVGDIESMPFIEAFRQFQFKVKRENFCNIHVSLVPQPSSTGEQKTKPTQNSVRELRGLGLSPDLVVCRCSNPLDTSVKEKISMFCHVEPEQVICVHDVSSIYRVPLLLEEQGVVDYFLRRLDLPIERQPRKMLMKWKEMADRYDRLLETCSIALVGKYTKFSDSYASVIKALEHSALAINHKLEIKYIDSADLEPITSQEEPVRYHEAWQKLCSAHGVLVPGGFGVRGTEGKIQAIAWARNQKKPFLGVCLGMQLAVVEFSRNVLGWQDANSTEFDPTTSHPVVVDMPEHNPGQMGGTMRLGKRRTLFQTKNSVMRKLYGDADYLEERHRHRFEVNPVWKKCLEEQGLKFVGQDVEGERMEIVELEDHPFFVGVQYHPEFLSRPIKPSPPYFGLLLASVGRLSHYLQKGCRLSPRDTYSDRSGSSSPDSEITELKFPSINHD
Assay: ADP-Glo assay, human CTPS1 enzyme inhibition
Format: biochemical
Conditions: wild-type human CTPS1, 25 nM enzyme; ADP-Glo; read-out: ADP-Glo_WT_hCTPS1—25 nM_IC50 (IC50)
Summary of the method: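 ADP-Glo luminescence quantified ADP produced by 25 nM purified human CTPS1 (full length, FLAG-His tagged) at 25° C within the linear phase. Final substrates: ATP 120 μM, UTP 160 μM, GTP 60 μM, L-glutamine 100 μM; 1% DMSO; pH 7.4 HEPES buffer with Mg2+, KCl, DTT. Compound pre-incubated with enzyme 10 min, then with ATP/UTP 10 min.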

SMILES | IC50
CCOc1cncc(-c2cnc(C(=O)NC3(c4cc(NS(=O)(=O)C5CC5)ccn4)CC3)s2)n1 [I-179, N-(1-(4-(cyclopropanesulfonamido)pyridin-2-yl)cyclopropyl)-5-(6-ethoxypyrazin-2-yl)thiazole-2-carboxamide] | 5 to 25 nM
CCOc1cncc(-c2cnc(C(=O)NCc3cncc(NS(=O)(=O)C4CC4)n3)s2)n1 [I-180, N-((6-(cyclopropanesulfonamido)pyrazin-2-yl)methyl)-5-(6-ethoxypyrazin-2-yl)thiazole-2-carboxamide] | 5 to 25 nM
O=C(NCc1cc(NS(=O)(=O)C2CC2)ccn1)c1ccc(-c2cnn3ccc(Cl)cc23)cc1F [I-181, 4-(5-chloropyrazolo[1,5-a]pyridin-3-yl)-N-((4-(cyclopropanesulfonamido)pyridin-2-yl)methyl)-2-fluorobenzamide] | 25 to 50 nM
CCOc1cncc(-c2cnc(C(=O)NC3(c4cc(NS(=O)(=O)C5CC5)ccn4)CCN(C)C3)s2)n1 (centres unmarked) [I-182, N-(3-(4-(cyclopropanesulfonamido)pyridin-2-yl)-1-methylpyrrolidin-3-yl)-5-(6-ethoxypyrazin-2-yl)thiazole-2-carboxamide, formic acid salt] | 5 to 25 nM
CCOc1cncc(-c2cnc(C(=O)N[C@@H](CCN3CCCCC3)c3cccc(NS(=O)(=O)C(F)F)c3)s2)n1 [I-183, (S)-N-(1-(3-((difluoromethyl)sulfonamido)phenyl)-3-(piperidin-1-yl)propyl)-5-(6-ethoxypyrazin-2-yl)thiazole-2-carboxamide] | > 100 nM
CCOc1cncc(-c2cnc(C(=O)N[C@H](CCN3CCCCC3)c3cccc(NS(=O)(=O)C(F)F)c3)s2)n1 [I-184, (R)-N-(1-(3-((difluoromethyl)sulfonamido)phenyl)-3-(piperidin-1-yl)propyl)-5-(6-ethoxypyrazin-2-yl)thiazole-2-carboxamide] | 5 to 25 nM
CCOc1cncc(-c2cnc(C(=O)N[C@@H](CCNC3CC3)c3cc(NS(=O)(=O)C4CC4)ccn3)s2)n1 [I-185, (S)-N-(1-(4-(cyclopropanesulfonamido)pyridin-2-yl)-3-(cyclopropylamino)propyl)-5-(6-ethoxypyrazin-2-yl)thiazole-2-carboxamide] | 50 to 100 nM
CCOc1cncc(-c2cnc(C(=O)N[C@H](CCNC3CC3)c3cc(NS(=O)(=O)C4CC4)ccn3)s2)n1 [I-186, (R)-N-(1-(4-(cyclopropanesulfonamido)pyridin-2-yl)-3-(cyclopropylamino)propyl)-5-(6-ethoxypyrazin-2-yl)thiazole-2-carboxamide] | 5 to 25 nM
CCOc1cncc(-c2cnc(C(=O)N[C@H](c3cccc(NS(=O)(=O)C(F)F)c3)[C@H]3CCOC3)s2)n1 [I-187, N-((S)-(3-((difluoromethyl)sulfonamido)phenyl)((R)-tetrahydrofuran-3-yl)methyl)-5-(6-ethoxypyrazin-2-yl)thiazole-2-carboxamide] | 5 to 25 nM
CCOc1cncc(-c2cnc(C(=O)N[C@H](c3cccc(NS(=O)(=O)C(F)F)c3)[C@@H]3CCOC3)s2)n1 [I-188, N-((S)-(3-((difluoromethyl)sulfonamido)phenyl)((S)-tetrahydrofuran-3-yl)methyl)-5-(6-ethoxypyrazin-2-yl)thiazole-2-carboxamide] | 5 to 25 nM
CCOc1cncc(-c2cnc(C(=O)N[C@@H](c3cccc(NS(=O)(=O)C(F)F)c3)[C@@H]3CCOC3)s2)n1 [I-189, N-((R)-(3-((difluoromethyl)sulfonamido)phenyl)((S)-tetrahydrofuran-3-yl)methyl)-5-(6-ethoxypyrazin-2-yl)thiazole-2-carboxamide] | ≤ 5 nM
CCOc1cncc(-c2cnc(C(=O)N[C@@H](c3cccc(NS(=O)(=O)C(F)F)c3)[C@H]3CCOC3)s2)n1 [I-190, N-((R)-(3-((difluoromethyl)sulfonamido)phenyl)((R)-tetrahydrofuran-3-yl)methyl)-5-(6-ethoxypyrazin-2-yl)thiazole-2-carboxamide] | 5 to 25 nM
CCOc1cncc(-c2cnc(C(=O)N[C@@H](C[C@@H]3COCCN3C)c3cccc(NS(=O)(=O)C(F)F)c3)s2)n1 [I-191, N-((S)-1-(3-((difluoromethyl)sulfonamido)phenyl)-2-((R)-4-methylmorpholin-3-yl)ethyl)-5-(6-ethoxypyrazin-2-yl)thiazole-2-carboxamide] | 25 to 50 nM
CCOc1cncc(-c2cnc(C(=O)N[C@@H](C[C@H]3COCCN3C)c3cccc(NS(=O)(=O)C(F)F)c3)s2)n1 [I-192, N-((S)-1-(3-((difluoromethyl)sulfonamido)phenyl)-2-((S)-4-methylmorpholin-3-yl)ethyl)-5-(6-ethoxypyrazin-2-yl)thiazole-2-carboxamide] | 5 to 25 nM
CCOc1cncc(-c2cnc(C(=O)N[C@H](CC3COCCN3C)c3cccc(NS(=O)(=O)C(F)F)c3)s2)n1 (stereo partly drawn) [I-193, N-((1R)-1-(3-((difluoromethyl)sulfonamido)phenyl)-2-(4-methylmorpholin-3-yl)ethyl)-5-(6-ethoxypyrazin-2-yl)thiazole-2-carboxamide] | 50 to 100 nM
CCOc1cncc(-c2cnc(C(=O)N[C@H](c3cccc(NS(=O)(=O)C(F)F)c3)C3CCOCC3)s2)n1 [I-194, (S)-N-((3-((difluoromethyl)sulfonamido)phenyl)(tetrahydro-2H-pyran-4-yl)methyl)-5-(6-ethoxypyrazin-2-yl)thiazole-2-] | 5 to 25 nM
CCOc1cncc(-c2cnc(C(=O)N[C@@H](c3cccc(NS(=O)(=O)C(F)F)c3)C3CCOCC3)s2)n1 [I-195, (R)-N-((3-((difluoromethyl)sulfonamido)phenyl)(tetrahydro-2H-pyran-4-yl)methyl)-5-(6-ethoxypyrazin-2-yl)thiazole-2-carboxamide] | 5 to 25 nM
O=C(N[C@H](c1cccc(NS(=O)(=O)C(F)F)c1)C1CCOCC1)c1ncc(-c2cnn3ccc(Cl)cc23)s1 [I-196, (S)-5-(5-chloropyrazolo[1,5-a]pyridin-3-yl)-N-((3-((difluoromethyl)sulfonamido)phenyl)(tetrahydro-2H-pyran-4-yl)methyl)thiazole-2-carboxamide] | 5 to 25 nM
O=C(N[C@@H](c1cccc(NS(=O)(=O)C(F)F)c1)C1CCOCC1)c1ncc(-c2cnn3ccc(Cl)cc23)s1 [I-197, (R)-5-(5-chloropyrazolo[1,5-a]pyridin-3-yl)-N-((3-((difluoromethyl)sulfonamido)phenyl)(tetrahydro-2H-pyran-4-yl)methyl)thiazole-2-carboxamide] | 5 to 25 nM
CCOc1cncc(-c2cnc(C(=O)N[C@H](c3cccc(NS(=O)(=O)C(F)F)c3)[C@H]3COCCO3)s2)n1 [I-198, N-((R)-(3-((difluoromethyl)sulfonamido)phenyl)((S)-1,4-dioxan-2-yl)methyl)-5-(6-ethoxypyrazin-2-yl)thiazole-2-carboxamide] | 5 to 25 nM
CCOc1cncc(-c2cnc(C(=O)N[C@H](c3cccc(NS(=O)(=O)C(F)F)c3)[C@@H]3COCCO3)s2)n1 [I-199, N-((R)-(3-((difluoromethyl)sulfonamido)phenyl)((R)-1,4-dioxan-2-yl)methyl)-5-(6-ethoxypyrazin-2-yl)thiazole-2-carboxamide] | 5 to 25 nM
CCOc1cncc(-c2cnc(C(=O)N[C@@H](c3cccc(NS(=O)(=O)C(F)F)c3)[C@@H]3COCCO3)s2)n1 [I-200, N-((S)-(3-((difluoromethyl)sulfonamido)phenyl)((R)-1,4-dioxan-2-yl)methyl)-5-(6-ethoxypyrazin-2-yl)thiazole-2-carboxamide] | 5 to 25 nM
CCOc1cncc(-c2cnc(C(=O)N[C@@H](c3cccc(NS(=O)(=O)C(F)F)c3)[C@H]3COCCO3)s2)n1 [I-201, N-((S)-(3-((difluoromethyl)sulfonamido)phenyl)((S)-1,4-dioxan-2-yl)methyl)-5-(6-ethoxypyrazin-2-yl)thiazole-2-carboxamide] | 5 to 25 nM
CCOc1cncc(-c2cnc(C(=O)N[C@]3(c4cccc(NS(=O)(=O)C(F)F)c4)C[C@H](O)C3)s2)n1 [I-202, N-((1s,3s)-1-(3-((difluoromethyl)sulfonamido)phenyl)-3-hydroxycyclobutyl)-5-(6-ethoxypyrazin-2-yl)thiazole-2-carboxamide] | 5 to 25 nM
CCOc1cncc(-c2cnc(C(=O)N[C@]3(c4cccc(NS(=O)(=O)C(F)F)c4)C[C@@H](O)C3)s2)n1 [I-203, N-((1r,3r)-1-(3-((difluoromethyl)sulfonamido)phenyl)-3-hydroxycyclobutyl)-5-(6-ethoxypyrazin-2-yl)thiazole-2-carboxamide] | 5 to 25 nM
CCOc1cncc(-c2cnc(C(=O)N[C@@H](CN3C[C@H]4C[C@@H]3CO4)c3cccc(NS(=O)(=O)C(F)F)c3)s2)n1 [I-204, N-((R)-2-((1R,4R)-2-oxa-5-azabicyclo[2.2.1]heptan-5-yl)-1-(3-((difluoromethyl)sulfonamido)phenyl)ethyl)-5-(6-ethoxypyrazin-2-yl)thiazole-2-carboxamide] | 5 to 25 nM
